Laboratory results from US8772268B2, “Bisphosphonamidate prodrugs and uses thereof” (The Johns Hopkins University, priority 2010, dated 2014).
“And” between values parts separate entries of the source, which are not always exact repeats. Equal values may be shown once.

Experiments:
DU145 = assay: NCI-60 DTP Human Tumor Cell Line Screen; type: cell-based; details: DU145, Prostate Cancer, 48 h
NCI-H226 = assay: NCI-60 DTP Human Tumor Cell Line Screen; type: cell-based; details: NCI-H226, Non-Small Cell Lung Cancer, 48 h
UACC-257 = assay: NCI-60 DTP Human Tumor Cell Line Screen; type: cell-based; details: UACC-257, Melanoma, 48 h
NCI-H460 = assay: NCI-60 DTP Human Tumor Cell Line Screen; type: cell-based; details: NCI-H460, Non-Small Cell Lung Cancer, 48 h
U251 = assay: NCI-60 DTP Human Tumor Cell Line Screen; type: cell-based; details: U251, CNS Cancer, 48 h
T-47D = assay: NCI-60 DTP Human Tumor Cell Line Screen; type: cell-based; details: Breast Cancer, 48 h
IGROV1 = assay: NCI-60 DTP Human Tumor Cell Line Screen; type: cell-based; details: IGROV1, Ovarian Cancer, 48 h
caspases 3/7 = assay: Caspase Glo 3/7 assay; type: cell-based; details: higher drug concentrations, by 48 hours
Procedure: Caspase Glo 3/7 (Promega) assay was used to determine caspases 3/7 activation following treatment of cells with clodronate prodrug. Briefly, cells were treated with clodronate prodrug for 24, 48, or 72 h. Caspase glo 3/7 (Promega) reagent ([…]) was added to each well at 24, 48 or 72 h. The cells were then incubated at room temperature for 1 h, and the luminescence of each well was determined using a luminometer.

CCRF-CEM = assay: NCI-60 DTP Human Tumor Cell Line Screen; type: cell-based; details: Leukemia, 48 h
OVCAR-4 = assay: NCI-60 DTP Human Tumor Cell Line Screen; type: cell-based; details: OVCAR-4, Ovarian Cancer, 48 h
[1] = tested on: MDA-MB-453 (breast) cancer cell line; assay: MTS cell proliferation assay, MDA-MB-453; type: cell-based
Procedure: Cell proliferation was determined using the CellTiter 96 Aqueous One Solution Cell Proliferation Assay MTS assay. A549 NSCLC cells were plated at 1.5×10^3 cells per well in flat bottom 96 well plates in 99 μL of media and allowed to adhere overnight. The drugs were serially diluted in 100% DMSO. For each drug treatment group, 1 μL of a 100× stock solution was added to each well for a final DMSO concentration of 1%. Cells were treated for 24, 48 or 72 hours. Cells were incubated with MTS dye (20 μL well^−1) for 40 min to 2 h. Absorbance at 490 nm was determined using a SpectraMax M2 (Molecular Devices) plate reader. The percent cell proliferation was calculated by converting the experimental absorbance to percentage of control, which was then plotted vs. drug concentration. The IC50 values were determined using a non-linear dose-response analysis in GraphPad Prism version 4.0. The IC50 is defined as the concentration of drug needed to cause a 50% decrease in proliferation compared to vehicle control.
The activity of Clodronate prodrug (14) was tested against other cell lines, include prostate (PIP3) and breast (MDA-MB-453) cancer cells lines. Cell proliferation was determined using the CellTiter 96 Aqueous One Solution Cell Proliferation Assay MTS assay as discussed above. Results are shown in FIG. 22 and in the table below.

[2] = In vivo tolerance study, intraperitoneal dosing; design: species or system Balb/C mice; details: listed as clodronate prodrug
Procedure: Thirteen Balb/C mice were split into four groups; untreated, vehicle, dose 1 and dose 2. Untreated mice received no treatment or injection. The vehicle was 100 μL of corn oil. Mice receiving dose 1 received 100 μL of 30 mM clodronate prodrug dissolved in corn oil (2.17 mg/dose), which is about 110 mg/kg dose. Mice receiving dose 2 received 100 μL of 50 mM clodronate prodrug dissolved in corn oil (3.61 mg/dose), which is about a 200 mg/kg dose. Mice were dosed on Monday of each week for two weeks. The weights were measured for 4 consecutive days following dosing.

786-0 = assay: NCI-60 DTP Human Tumor Cell Line Screen; type: cell-based; details: 786-0, Renal Cancer, 48 h

CN(CCCCCl)P(=O)(OCc1ccc([N+](=O)[O-])cc1)C(Cl)(Cl)P(=O)(OCc1ccc([N+](=O)[O-])cc1)N(C)CCCCCl (stereo not shown) [compound 14]
Log10GI50 (DU145): −5.40
Log10LC50 (DU145): >−4.00
Log10TGI (DU145): >−4.00
Log10GI50 (NCI-H226): −5.52
Log10LC50 (NCI-H226): >−4.00
Log10TGI (NCI-H226): >−4.00
Log10GI50 (UACC-257): −5.56
Log10LC50 (UACC-257): >−4.00
Log10TGI (UACC-257): −5.10
Log10GI50 (NCI-H460): −5.42
Log10LC50 (NCI-H460): >−4.00
Log10TGI (NCI-H460): >−4.00
Log10GI50 (U251): −5.45
Log10LC50 (U251): >−4.00
Log10TGI (U251): >−4.00
Log10GI50 (T-47D): −5.27
Log10LC50 (T-47D): >−4.00
Log10TGI (T-47D): >−4.00
Log10GI50 (IGROV1): −5.39
Log10LC50 (IGROV1): >−4.00
Log10TGI (IGROV1): >−4.00
caspases 3/7 activation (caspases 3/7): Activation of caspases 3/7
Log10GI50 (CCRF-CEM): −5.50
Log10LC50 (CCRF-CEM): >−4.00
Log10TGI (CCRF-CEM): >−4.00
Log10GI50 (OVCAR-4): −5.54
Log10LC50 (OVCAR-4): >−4.00
Log10TGI (OVCAR-4): >−4.00
EC50 [1]: 9 µM
Wt ([2]; Dose 1 (about 110 mg/kg i.p.), week 1, Apr. 11, 2011, individual mice): 19.2 g and 18.3 g and 19.4 g
Wt ([2]; Dose 1, 2nd week of treatment, Apr. 18, 2011): 19.3 g and 18.8 g and 18.4 g
Wt ([2]; Dose 1, 2nd week, Apr. 19, 2011): 19.3 g and 18.9 g and 18.3 g
Wt ([2]; Dose 1, 2nd week, Apr. 20, 2011): 19.4 g and 18.9 g and 18.4 g
Wt ([2]; Dose 1, 2nd week, Apr. 21, 2011): 19.1 g and 18.9 g and 18.6 g
Wt ([2]; Dose 1, 2nd week, Apr. 22, 2011): 19.3 g and 19.2 g and 18.3 g
Wt ([2]; Dose 1, week 1, Apr. 12, 2011): 19.3 g and 18.1 g and 18.4 g
Wt ([2]; Dose 1, week 1, Apr. 13, 2011): 19.8 g and 18.8 g and 18.7 g
Wt ([2]; Dose 1, week 1, Apr. 14, 2011): 19.8 g and 18.7 g and 19.1 g
Wt ([2]; Dose 1, week 1, Apr. 15, 2011): 19.5 g and 19.01 g and 18.8 g
Wt ([2]; Dose 2 (about 200 mg/kg i.p.), week 1, Apr. 11, 2011, individual mice): 18.7 g and 18.2 g and 19.1 g
Wt ([2]; Dose 2, 2nd week of treatment, Apr. 18, 2011): 19.3 g and 19.1 g and 19.5 g
Wt ([2]; Dose 2, 2nd week, Apr. 19, 2011): 19.1 g and 19.3 g and 19.5 g
Wt ([2]; Dose 2, 2nd week, Apr. 20, 2011): 18.8 g and 19 g
Wt ([2]; Dose 2, 2nd week, Apr. 21, 2011): 19 g and 19.4 g
Wt ([2]; Dose 2, 2nd week, Apr. 22, 2011): 18.9 g and 19.5 g and 20 g
Wt ([2]; Dose 2, week 1, Apr. 12, 2011): 17.8 g and 17.7 g and 18.2 g
Wt ([2]; Dose 2, week 1, Apr. 13, 2011): 19.07 g and 18.8 g
Wt ([2]; Dose 2, week 1, Apr. 14, 2011): 19.03 g and 18.8 g and 19.1 g
Wt ([2]; Dose 2, week 1, Apr. 15, 2011): 18.7 g and 18.2 g and 19.6 g
Log10GI50 (786-0): −5.28
Log10LC50 (786-0): >−4.00
Log10TGI (786-0): >−4.00
